According to patent publication US20220280602A1, “ANTICANCER AGENT AND METHOD FOR PREPARATION OF POROUS SILICA PARTICLE” (LEMONEX INC., priority 2019, published 2022):

What was measured:
[1] = tested on: MCF-7 cells expressing LC3-GFP; test: Measurement of the number of GFP-LC3 puncta (autophagy induction); type: cell-based; conditions: MCF-7 expressing LC3-GFP, 6 hours, serum-free medium
Experimental: Using lipofectamine 2000, LC3-GFP plasmid was transfected into MCF-7 cells. Transfected MCF-7 was selected with 800 μg/mL of G418 for 3 months. […] 100,000 MCF-7 cells expressing LC3-GFP were seeded.
40 μg of dye-labeled particles and 4 μg of bec1 peptide were mixed, and the cells were treated for 6 hours in a serum-free medium. Cells were fixed with 4% PFA, and nuclei were stained with DAPI. Images were obtained with a Delta-vision microscope, and the number of GFP-LC3 puncta was measured in 100 cells for each group.

MCF-7 cells = test: Assessment of cytotoxicity by MTT assay; type: cell-based; conditions: 1 day treatment
Experimental: MCF-7 cells were seeded at 10,000 cells/well in 96-well cell culture plates. After 1 day, different concentrations of each particle (4 to 500 μg/mL) were treated with a serum-containing medium in each well for 1 day. Thereafter, the culture was performed for 4 hours while replacing the above medium with a serum-free medium containing 10 μl of MTT assay kit, and the supernatant was aspirated. DMSO was added to each well to dissolve formazan, and reacted for 1 hour. The absorbance was measured at a wavelength of 570 nm, and the cell viability was calculated as a relative value to that of the untreated group.

CGGTNVFNATFHIWHSGQFGT (listed as Homo sapiens) [Bec1 peptide]
Amount of GFP puncta [1]: very little amount | Cell viability compared to non-treated group (MCF-7 cells): not significantly varied
